Results taken from PMC5007466, “VCP recruitment to mitochondria causes mitophagy impairment and neurodegeneration in models of Huntington's disease” (Nature Communications, 2016).

What was measured:
[1] = system: HdhQ111 / HdhQ7 mouse striatal cells; test: Mitochondrial morphology, anti-Tom20 staining; format: cell-based
Description: Figure 4 HV-3 treatment reduces mitochondrial damage and cell death in HD cell cultures. Mouse HdhQ7 and HdhQ111 striatal cells were treated with control peptide TAT or peptide HV-3 (3 uM/day for 3 days). (a) Left panel: Mitochondrial membrane potential (MMP) was determined by TMRM fluorescent dye. Right panel: HdhQ111 cells were transfected with control siRNA (siCon) and VCP siRNA (siVCP) for three days. The MMP was determined by TMRM in HdhQ111 cells treated with TAT or HV-3. (b) Mitochondrial morphology was determined by staining cells with anti-Tom20 antibody. Scale bar: 10 μm. The percentage of cells with fragmented mitochondria relative to the total number of cells was quantitated. At least 100 cells per group were counted. (c) Mitochondrial morphology was determined by EM. The length of mitochondria and the number of mitophagosomes were quantitated. At least 90 mitochondria per group were counted. […] HMGB1 release into culture medium was determined by IB analysis with anti-HMGB1 antibody. […] Cell death was determined by the release of LDH. […] (g) Quantitation of neurite length of medium spiny neurons. At least 50 neurons per group were counted by an observer blind to experimental conditions. (h) Left: the MMP was determined by TMRM fluorescent dye. […] Mitochondrial length along neurites of DARPP32/Tuj1-positive neurons was quantitated. […]

[2] = system: R6/2 mice; test: VCP mitochondrial level, R6/2 mouse striatum; format: in vivo; details: R6/2, 3 mg kg^−1 per day from 5 to 9 weeks versus TAT, n=6
Description: Cells were washed with cold PBS and incubated on ice for 30 min in a lysis buffer (250 mM sucrose, 20 mM HEPES-NaOH, pH 7.5, 10 mM KCl, 1.5 mM MgCl2, 1 mM EDTA, protease inhibitor cocktail and phosphatase inhibitor cocktail). Mouse brains were minced and homogenized in the lysis buffer and then placed on ice for 30 min. Collected cells or tissue were disrupted 20 times by repeated aspiration through a 25-gauge needle, followed by a 30-gauge needle. The homogenates were spun at 800 g for 10 min at 4 °C, and the resulting supernatants were spun at 10,000 g for 20 min at 4 °C. The pellets were washed with lysis buffer and spun at 10,000 g again for 20 min at 4 °C. The final pellets were suspended in lysis buffer containing 1% Triton X-100 and were mitochondrial-rich lysate fractions. The supernatant was centrifuged at 100,000 g, 4 °C, for 1 h, the pellets were suspended in lysis buffer containing 1% Triton X-100 as ER fractions. The final supernatant was cytosolic fractions. The mitochondrial proteins VDAC, the ER protein WFS1 and the cytosolic protein Enolase were used as loading controls for mitochondrial, ER and cytosolic fractions, respectively.
Male R6/2 mice and their wt littermates (4 weeks old) were purchased from Jackson Laboratories (Bar Harbor, ME; B6CBA-TgN (HD exon 1)62; JAX stock number: 006494). […]
(§1) Protein concentrations were determined by Bradford assay. […]

[3] = system: wild-type mouse striatal cells; test: GFP-LC3B association with mitochondria in cells expressing Flag-VCP; format: cell-based; details: wt striatal cells, 36 h
Description: Figure 5 Treatment of HV-3 reduces excessive mitophagy in HD cell cultures and HD mouse brains. (a) HdhQ7 and HdhQ111 cells were treated with control siRNA (con) or VCP siRNA (siVCP) for 48 h. Mitochondria were isolated and LC3 mitochondrial levels were determined by WB. Representative blots are from three independent experiments. The quantitation of LC3 II levels on mitochondria is provided on the right. VADC was used as a loading control. (b) Flag-VCP and GFP-LC3B were co-transfected into wild-type striatal cells. Mitochondria were isolated after 36 h of transfection. The GFP-LC3B levels on mitochondria were examined by WB. VDAC was used as a loading control. Representative blots are from three independent experiments. Histogram: quantitation of GFP-LC3B mitochondrial protein level. HdhQ7 and HdhQ111 cells were treated with control peptide TAT or peptide HV-3 (3 uM/day for 3 days). (c) HdhQ111 cells were transfected with GFP-LC3B for 24 h. The number of GFP-LC3B puncta was quantitated and shown in the histogram. […] (d) Enzyme activity of lysosomal Cathepsin B was measured using a Cathepsin B assay kit. […] (e) Mitochondrial mass was measured by the fluorescent density of Mitotracker green. […] Histogram: the number of mitophagosomes per 100 μm^2 was counted and quantitated. Fifteen random areas in the striatum of each animal were analyzed. […]
as §1

With `CSCC[C@H](NC(=O)[C@@H](NC(=O)[C@H](CC(C)C)NC(=O)[C@@H](NC(=O)[C@H](Cc1c[nH]cn1)NC(=O)CCCCCNC(=O)[C@H](CCCNC(=N)N)NC(=O)[C@H](CCCNC(=N)N)NC(=O)[C@H](CCCNC(=N)N)NC(=O)[C@H](CCC(N)=O)NC(=O)[C@H](CCCNC(=N)N)NC(=O)[C@H](CCCNC(=N)N)NC(=O)[C@H](CCCCN)NC(=O)[C@H](CCCCN)NC(=O)[C@H](CCCNC(=N)N)NC(=O)CNC(=O)[C@@H](N)Cc1ccc(O)cc1)C(C)C)C(C)C)C(=O)N[C@@H](CS)C(=O)N[C@@H](C)C(=O)N[C@H](C(N)=O)[C@@H](C)O` [HV-3] the fragmented mitochondria ([1]; HdhQ111 cells, 3 uM/day for 3 days, anti-Tom20) was “reduced the number of fragmented mitochondria”, the “mitochondrial morphology, wt” value ([1]; wt counterparts of the HD models) was “only minor effects” and the “VCP translocation to mitochondria in striatum” value [2] was “suppressed the VCP translocation to mitochondria”. The “GFP-LC3B association with mitochondria” value [3] was “could be inhibited by treatment with HV-3”.
